Read-outs that look alike come from different tables or passages of the source.
Columns and labels:
[1] = tested on: TNF-α production from draining lymph node cells; assay: TNF-α production by draining lymph node cells (ELISA); type: cell-based, rat; conditions: all doses greater than 20 μM; supernatant after 24 hours; FIG. 7
Experimental: (§1) FIG. 7 are a pair of graphs showing the amount of IFN-γ and TNF-α production from draining lymph node cells (DLNC). DLNC were stimulated with MBP (87-99) alone (●) or with the peptide analogue (91K>A) (▪).
(§2) Cytokine production in draining lymph node cells from rats injected with MBP (87-99) alone or with the peptide analogue (91K>A) was determined. IFN-γ and TNF-α production were measured.
(§3) Draining lymph node cells (10^7 cells/ml) were stimulated in vitro with different concentrations of MBP (87-99) or peptide analogue. Supernatants were collected after 24 and 48 hours. IFN-γ was determined after 48 hours by use of a rat IFN-γ ELISA kit (GIBCO BRL). TNF-α was measured after 24 hours by ELISA kit (Genzyme Corp., Cambridge, Mass.).

EAE [2] = assay: Prevention of EAE by co-injection of the peptide analogue with an EAE-inducing peptide; type: in vivo, rat
EAE [3] = assay: Reversal of EAE induced by adoptive transfer of L87-99 T cells; type: in vivo, rat
[4] = tested on: lymph node cells (LNC) reactive to MBP (87-99); assay: Antigen-specific lymph node cell proliferation assay; type: cell-based, Lewis rat; conditions: 10 μM peptide, 3 days, [3H]-thymidine; FIG. 4
Experimental: FIG. 4 is a graph displaying the proliferative response of MBP-reactive lymph node cells to position 91-substituted analogues. Two different substitutions were tested. The proliferative response of lymph node cells to 10 μM of MBP (87-99), motilin, A91 or K91 was determined. Proliferation is shown as counts per minute. BKG, no peptide added; 87-99, MBP (87-99); motilin, an unrelated peptide; A91, peptide analogue with alanine at position 91; K91, peptide analogue with D-lysine at position 91.
As an alternative to the use of T cell lines as described above, draining lymph node cells from Lewis rats immunized with MBP (87-99) may be used. […] Cultures are harvested on fiberglass filters and counted in a scintillation counter. Mean CPM and the standard error of the mean are calculated from data determined in triplicate cultures. […]
For the assay, 100 μl of the lymph node suspension was added to 96-well flat-bottom wells in the presence of an equal volume of medium containing 10 μM of various peptides (including: motilin as a negative control; MBP87-99; medium only, or alanine or D-amino acid substituted at position 91). […] The plates were then harvested with a Matrix filtermate harvester (Packard) and counted using an Automatic Direct Beta Counter (Packard). Mean cpm and the standard error of the mean were calculated from triplicate wells.

[5] = tested on: anti MBP (87-99) T cell line L87-99; type: cell-based, rat; conditions: all concentrations, 10^-4 μM to 10^-2 μM analogue; APC prepulsed with 0.2 μM native peptide; FIG. 5
Experimental: FIG. 5 is a graph illustrating the ability of alanine-substituted analogues to antagonize T cells. […] Results are shown as stimulation index ±SE.
The second or alternative assay is a competition assay for T cell proliferation. In this assay, antigen presenting spleen cells are first irradiated and then incubated with native MBP (87-99) peptide for 2-4 hours. These cells are then washed and further cultured with T cells reactive to MBP (87-99). Various concentrations of candidate peptide analogues are included in cultures for an additional 3 days. Following this incubation period, each culture is pulsed with 1 μCi of [^3H]-thymidine for an additional 12-18 hours. Cultures are then harvested on fiberglass filters and counted as above. Mean CPM and standard error of the mean are calculated from data determined in triplicate cultures. Peptide analogues which inhibit proliferation to approximately 25% at a concentration of 50 μM or greater are suitable for further screening.
T cell antagonism was detected in a prepulsed proliferation assay as described by De Magistris et al. (Cell […]:625, 1992) with minor modifications. […] The cultures were then harvested on fiberglass filters and the proliferative response expressed as CPM±SD or as stimulation index (mean CPM from test cultures divided by mean CPM from control cultures).

EAE [6] = conditions: rat, in vivo
Experimental: In addition, as a safety measure, but not essential to this invention, suitable peptide analogues may be tested for direct induction of EAE. As described in detail in Example 2, various amounts of peptide analogues are injected at the base of the tail of rats, and the rats examined daily for signs of EAE. A peptide analogue which is not considered to cause EAE has a mean cumulative score of less than or equal to 1 over seven days when 1 mg (5 mg/kg) in complete Freund's adjuvant is injected.
MBP peptides and analogues were dissolved in phosphate-buffered saline (PBS) and emulsified with an equal volume of incomplete Freund's adjuvant supplemented with 4 mg/ml heat-killed Mycobacterium tuberculosis H37Ra in oil (Difco Laboratories, Inc., Detroit, Mich.). Rats were immunized subcutaneously in the hind foot pads with 0.1 ml of the emulsion and were monitored for clinical signs daily by an observer blind to the treatment protocol. For intravenous injections MBP peptides and analogues were dissolved in normal saline. EAE was scored as follows: 0, clinically normal; 1, flaccid tail; 2, hind limb paralysis; 3, front and hind limb paralysis.
The ability of peptide analogues to cause EAE is assessed in vivo. Rats were injected with MBP (87-99) or (91K>A) peptide analogue as described in Example 2. Animals were monitored daily for evidence of EAE. Rats receiving MBP (87-99) had 100% incidence (18/18 rats) of EAE with a mean maximum clinical score of 2.4±0.2. In contrast, 0/12 rats receiving the peptide analogue (91k>A) had EAE.

[7] = tested on: IFN-γ production from draining lymph node cells; assay: IFN-γ production by draining lymph node cells (ELISA); type: cell-based, rat; conditions: all doses; supernatant after 48 hours; FIG. 7
Experimental: as §1, §2, §3

[8] = as Peptide 2, co-injected with Peptide 1 MBP(68-88), ratio 1:1
[9] = as Peptide 2, co-injected with Peptide 1 MBP(87-99), ratio 1:1, in complete Freund's adjuvant

In the case of `CC[C@H](C)[C@H](NC(=O)[C@H](CC(N)=O)NC(=O)[C@H](C)NC(=O)[C@H](Cc1ccccc1)NC(=O)[C@H](Cc1ccccc1)NC(=O)[C@H](Cc1c[nH]cn1)NC(=O)[C@@H](N)C(C)C)C(=O)N[C@H](C(=O)N[C@H](C(=O)N1CCC[C@H]1C(=O)N[C@@H](CCCNC(=N)N)C(=O)N[C@H](C(=O)N1CCC[C@H]1C(=O)O)[C@@H](C)O)[C@@H](C)O)C(C)C` [91K>A], the “TNF-α production (in words)” value [1] is reported as “marked decrease in cytokine production”, the “EAE Incidence” value (EAE [2]; [8]) is reported as 6/6 and the “EAE Mean Maximum Clinical Score” value (EAE [2]; [8]) is reported as 3 ± 0. The “EAE Incidence” value (EAE [2]; [9]) was 0/12, the “EAE Mean Maximum Clinical Score” value (EAE [2]; [9]) was 0 and the “inhibition of induction of EAE by MBP (68-88) (in words)” value (EAE [2]; co-immunization) was “not inhibit induction of EAE”. For the same molecule, the “inhibition of induction of EAE by MBP (87-99) (in words)” value (EAE [2]; co-immunization) was “could specifically inhibit induction of EAE”, the “time to complete remission” value (EAE [3]; after single injection (2 mg/ml) of soluble analogue) was no more than 36 h and the “rats going into complete remission without further signs of paralysis” value (EAE [3]; single injection (2 mg/ml) of soluble analogue to rats with hind limb paralysis, 5 days after 10^7 L87-99 T cells, p<0.015) was “six out of six”. For the same molecule, the “proliferative response of MBP (87-99)-reactive lymph node cells (in words)” value [4] was “failed to respond as well”, the “antagonism of the response of L87-99 to native peptide (in words)” value [5] was “effectively antagonize” and the “EAE Incidence” value (EAE [6]) was 0/12. The “EAE Mean Maximum Clinical Score” value (EAE [6]) was 0, the “incidence of EAE (rats with EAE / rats injected)” value (EAE [6]) was 0/12 and the “IFN-γ production (in words)” value [7] was “marked decrease in cytokine production”.
